Measured values published in publication PMC10535624, “Curcuminoid Chalcones: Synthesis, Stability, and New Neuroprotective and Sonosensitising Activities” (Pharmaceuticals, 2023).

Assays:
catalase (CAT) = biological target: T1, catalase (CAT) (Aspergillus niger, UniProt P55303); assay: Effect on CAT activity; format: biochemical; settings: samples 3 mM/dm^3 in DMSO, 0.01 mL; mean ± SEM, n = 3
T1 construct: purchased Sigma C3515
Protocol: (§1) The samples were dissolved in DMSO (Sigma D4540) to obtain a concentration of 3 mM/dm^3.
The method used by Watanabe et al. was used with the following modifications. The reaction mixture was composed of 0.02 mL of EDTA solution (56.5 mM), 0.01 mL of ^the sample, 0.02 mL of 3% H2O2 solution (Sigma H1009), and 0.02 mL of catalase solution (4000-fold diluted, Sigma C3515) (all reagents except the tested sample were diluted in TRIS buffer, pH 7.0, 1 mol/dm^3). The volume was completed to 0.31 mL by the same buffer solution. In a blank sample, DMSO (Sigma D4540) replaced the tested sample. The background of the sample was measured in a mixture composed of 0.01 mL of the sample completed to 0.31 mL by the buffer. The absorbance was read at 240 nm directly after the mixing and after 5 min of incubation (room temperature). The decreased absorbance (depletion of H2O2) in the tested and blank samples was compared. The calibration curve was produced using eleven H2O2 solutions (0.5693–5.693 mM/dm^3). The results are expressed in % inhibition and as H2O2 depletion (mmol of depleted H2O2/dm^3 min).

BChE = BChE (Homo sapiens, UniProt P06276); format: biochemical; settings: samples 3 mM/dm^3 in DMSO, 0.035 mL; mean ± SEM, n = 3
SOD2 gene = system: SOD2 gene; parameters: method as in PMID 37779412; settings: qRT-PCR ref 35; cited from earlier work
COX-2 = biological target: T2, COX-2 (Homo sapiens, UniProt P35354); assay: Effect on COX-2 activity; format: biochemical; settings: samples 3 mM/dm^3 in DMSO, 0.02 mL; mean ± SEM, n = 3
T2 sequence (P35354 18-604): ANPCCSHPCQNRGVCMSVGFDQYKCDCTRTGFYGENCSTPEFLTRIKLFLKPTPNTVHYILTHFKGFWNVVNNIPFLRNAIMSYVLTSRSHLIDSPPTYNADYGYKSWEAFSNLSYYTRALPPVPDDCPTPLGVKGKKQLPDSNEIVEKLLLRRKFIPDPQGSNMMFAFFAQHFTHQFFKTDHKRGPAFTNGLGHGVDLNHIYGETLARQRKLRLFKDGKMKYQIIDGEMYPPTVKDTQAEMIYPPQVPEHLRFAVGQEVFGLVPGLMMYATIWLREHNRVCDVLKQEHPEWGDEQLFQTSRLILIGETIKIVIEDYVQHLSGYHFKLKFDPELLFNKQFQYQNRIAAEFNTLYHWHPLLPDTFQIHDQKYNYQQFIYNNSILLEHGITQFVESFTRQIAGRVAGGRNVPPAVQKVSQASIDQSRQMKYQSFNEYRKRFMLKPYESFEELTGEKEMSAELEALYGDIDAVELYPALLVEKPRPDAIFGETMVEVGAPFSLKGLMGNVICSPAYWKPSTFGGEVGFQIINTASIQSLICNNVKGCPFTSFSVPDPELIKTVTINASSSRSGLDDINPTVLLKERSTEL

[1] = system: glutathione peroxidase (GPx); assay: Effect on GPx activity; format: biochemical; settings: samples 3 mM/dm^3 in DMSO; mean ± SEM, n = 3
Protocol: We decided to extend the study by measuring the compounds’ ability to inhibit glutathione reductase (GR) and GPx activities, the human cells’ main endogenous enzymatic defence systems. Therefore, we checked the influence of some curcuminoid chalcones on GR and GPx using in vitro spectroscopic methods (Table 2). Moreover, the effects of curcuminoid chalcones on CAT activity were estimated (Table 2).
as §1
The analyses were performed strictly as described by Studzińska-Sroka et al..

SCC-25 cells = assay: Sonodynamic cytotoxicity, MTT test; format: cell-based, human; settings: 40 µM, 8 h, then US 3 min, 3 MHz, 0.8 W/cm^2; MTT 6 h later; compared to untreated cells

Chain of BChE (P06276 29-602, species assumed): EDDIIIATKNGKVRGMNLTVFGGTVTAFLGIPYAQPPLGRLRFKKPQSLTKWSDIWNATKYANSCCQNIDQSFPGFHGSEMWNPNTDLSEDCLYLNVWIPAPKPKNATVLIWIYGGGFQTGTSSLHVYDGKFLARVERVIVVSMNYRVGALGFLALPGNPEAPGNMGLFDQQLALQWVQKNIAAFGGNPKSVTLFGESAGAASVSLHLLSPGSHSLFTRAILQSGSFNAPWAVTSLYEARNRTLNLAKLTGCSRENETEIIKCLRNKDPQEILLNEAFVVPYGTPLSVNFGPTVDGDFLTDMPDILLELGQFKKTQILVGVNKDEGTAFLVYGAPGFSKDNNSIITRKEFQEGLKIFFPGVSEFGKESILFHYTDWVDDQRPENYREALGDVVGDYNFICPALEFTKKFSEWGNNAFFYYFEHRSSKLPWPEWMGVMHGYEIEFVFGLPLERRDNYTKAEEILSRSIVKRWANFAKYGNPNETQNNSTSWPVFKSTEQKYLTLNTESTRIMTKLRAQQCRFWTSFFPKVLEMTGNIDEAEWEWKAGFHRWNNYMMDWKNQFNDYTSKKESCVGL
T1 sequence (P55303 whole entry): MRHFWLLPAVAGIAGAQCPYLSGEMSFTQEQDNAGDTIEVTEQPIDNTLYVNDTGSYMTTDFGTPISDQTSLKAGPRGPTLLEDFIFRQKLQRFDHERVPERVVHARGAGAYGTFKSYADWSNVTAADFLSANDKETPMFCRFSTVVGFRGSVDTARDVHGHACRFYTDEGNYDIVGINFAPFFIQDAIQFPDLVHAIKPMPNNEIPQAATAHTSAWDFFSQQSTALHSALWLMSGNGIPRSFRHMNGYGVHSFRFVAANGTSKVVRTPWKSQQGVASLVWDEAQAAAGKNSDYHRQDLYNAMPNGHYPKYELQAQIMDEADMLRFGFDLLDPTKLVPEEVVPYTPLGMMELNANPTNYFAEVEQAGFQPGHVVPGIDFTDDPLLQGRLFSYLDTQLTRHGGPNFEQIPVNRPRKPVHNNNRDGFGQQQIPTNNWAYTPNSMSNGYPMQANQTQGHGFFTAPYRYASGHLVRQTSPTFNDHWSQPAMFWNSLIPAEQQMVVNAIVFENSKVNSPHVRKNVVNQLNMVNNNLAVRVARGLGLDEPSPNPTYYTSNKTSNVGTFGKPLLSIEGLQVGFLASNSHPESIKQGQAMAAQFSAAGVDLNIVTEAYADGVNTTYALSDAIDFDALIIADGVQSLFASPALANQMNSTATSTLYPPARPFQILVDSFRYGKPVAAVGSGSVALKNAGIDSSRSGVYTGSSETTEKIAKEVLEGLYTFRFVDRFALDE

SMILES	CAT Inhibition (%) (catalase (CAT))	CAT Inhibition of the H2O2 Depletion (catalase (CAT)) [mm/dm^3/min]	BChE % (inhibition) (BChE) [%]	BChE, Equivalent Concentration of Reference Compound Magniflorine (BChE) [µg/mL]	BChE, Equivalent Concentration of Reference Compound Rivastigmine (BChE) [µg/mL]	Decrease of expression of the SOD2 gene compared to the control (SOD2 gene) [%]	COX-2 Inhibition (%) (COX-2)	GPx Inhibition (%) [1] [%]	GPx activity (NADPH consumption rate) [1] [nmol Depleted NADPH/min]	Reduction of viability of SCC-25 cells, compound combined with US (SCC-25 cells)
COc1ccc(C=CC(=O)c2ccccc2)cc1OC(=O)C(C)c1ccc(CC(C)C)cc1 (stereo not shown) [Compound 6, 2-Methoxy-5-(3-oxo-3-phenylprop-1-en-1-yl)phenyl-2-(4-isobutylphenyl)-propionate]	41.9 ± 1.2	0.15 ± 0.01	77.3 ± 5.2	0.30 ± 0.02	0.22 ± 0.02	65.20	-	17.4 ± 1.7	34.6 ± 3.3	
COc1cc(C=CC(=O)c2ccccc2)ccc1OC(=O)C(C)c1ccc(CC(C)C)cc1 (stereo not shown) [Compound 2, 2-Methoxy-4-(3-oxo-3-phenylprop-1-en-1-yl)phenyl-2-(4-isobutylphenyl)-propionate]			89.7 ± 4.8	0.35 ± 0.02	0.26 ± 0.01		-	17.0 ± 3.4	33.8 ± 6.8	significantly reduced viability
